Data as given in patent US8354431B2, “Aryl carboxylic acid cyclohexyl amide derivatives” (Novartis AG, priority 2007, dated 2013).

Experiments:
Human CCR5 = target: T1, Human CCR5 (Homo sapiens, UniProt P51681); experiment: CCR5 membrane binding assay ([I-125]MIP-1α); conditions: table does not name the assay; b437 says 'in these assays'
T1 construct: expressed in transfected cells; host or cells: CHO K1
Method: Human CCR5 is used to generate stable transfectants in CHO K1 cells. Membranes prepared from these CCR5 transfectants are used in a radioligand binding assay using 125-1-MIP-1α as a ligand and the compounds of formula I are tested for inhibitory activity. The data are reported as IC50, i.e. the concentration of compound required to achieve 50% inhibition of [I-125]MIP-1α binding. In this assay, compounds of formula I have an IC50 between 0.004 and 10 μM.

hCCR2b = target: T2, hCCR2b (Homo sapiens, UniProt P41597); experiment: CCR2 membrane binding assay (SPA, [125I] MCP-1); conditions: table does not name the assay; b437 says 'in these assays'
T2 construct: expressed in transfected cells; host or cells: CHO-dukX
T2 sequence (P41597 1-360 isoform P41597-2): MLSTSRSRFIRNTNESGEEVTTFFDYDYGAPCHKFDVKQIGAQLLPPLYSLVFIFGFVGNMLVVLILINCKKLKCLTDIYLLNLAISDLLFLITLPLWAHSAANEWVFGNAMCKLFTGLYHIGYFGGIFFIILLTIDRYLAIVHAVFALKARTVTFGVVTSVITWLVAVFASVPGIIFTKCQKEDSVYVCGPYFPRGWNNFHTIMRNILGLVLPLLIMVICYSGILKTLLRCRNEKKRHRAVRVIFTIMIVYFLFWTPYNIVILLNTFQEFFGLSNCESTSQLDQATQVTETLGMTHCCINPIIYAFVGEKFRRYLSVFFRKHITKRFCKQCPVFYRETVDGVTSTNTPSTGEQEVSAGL
Method: Transfected CHO-dukX cells stably expressing the hCCR2b gene are grown in MEM alpha medium to a confluency of between 70 and 80%. After discarding the medium, 30 ml ice-cold physiological buffer solution containing 1 mM EDTA are added and the cells removed from the plate using a scraper. The cell suspension is centrifuged at 800 g for 10′ at 4° C. and the cell pellet resuspended in buffer. Cell lysis is done using a Polytron PTI300D instrument at 28 000 RPM for 2 times 30 seconds on ice. Membranes are collected by centrifugation at 42 000 g for 20 minutes at 4° C. and subjected to a second round of lysis (Polytron, 28 000 RPM, 2×30 seconds on ice). Following centrifugation at 42 000 g for 20 minutes at 4° C. the membranes are resuspended in buffer at a protein concentration of 2 mg/ml and stored at −80° C. Ten millimolar stock solutions of test compounds in 100% DMSO are prepared. Test compounds are further diluted in buffer to yield the four-fold concentrated solutions for the tests that assayed a range of 10^−10 to 10^−5 M. The SPA assay is performed in a final volume of 200 μl per well in 96 well plates. The components are added per well in the following order: • 50 μl Buffer (+/−test compound) • 50 μl Wheat germ agglutinin-SPA beads (1.25 mg/well) in buffer • 50 μl CCR2B membrane suspension diluted with buffer to 0.04 mg/ml (2 μg/well), alternatively 50,000 cells per well • 50 μl [^125I] MCP-1 in buffer (60 pM final concentration, 2.5 μCi/plate)
After addition of all components the plate is sealed and incubated for 90 minutes at room temperature with constant shaking. Following incubation the plate is centrifuged at 1000 RPM in a Sorvall RC3B centrifuge for 4 minutes at room temperature and counted for 3 minutes per well in a TOP COUNT instrument (Packard). The quench-corrected counts are used for the analysis of radioligand binding.

CCR2 receptor = experiment: Receptor occupancy of the CCR2 receptor over time (blood monocytes, FACS); assay type: in vivo; conditions: dose 10 mg/kg
Method: The Agents of the Invention typically have a favourable pharmacokinetic profile, i.e. such as a relatively fast elimination over time. A faster elimination is typically indicative for an improved tolerability or is typically associable with less side effects. Such may be assessed by determining for example the receptor occupancy of the CCR2 receptor over time.
Receptor occupancy assaying may be performed in 96-well plates. 45 microliters of freshly obtained blood samples are incubated with 5 microliter of a MCP-1 solution (several concentrations for assessing a biding curve). The concentration of said MCP-1 solution is from 0.01 to 100 nanomolar, whereby the dilutions are made in RPMI1640 with glutamax supplemented with 1% nonessential amino acids, sodium pyruvate, penicillin/streptomycin, […] beta-mercaptoethanol and 1% human albumin.
Said incubation is carried out for 30 min at 37° C., and is then stopped by adding 180 microliter BD FACS lysis solution followed by centrifugation. Said lysis addition and centrifugation is repeated once and the remaining cells are then washed with ice cold FACS buffer ([…] containing 2% FCS and 0.1% NaN3). Thereupon, the cells are stained with antibodies for FACS analysis.
The cells are now triple stained with FITC-conjugated anti-CD14, PE-conjugated anti-HLA-DR and APC-conjugated anti-CCR2. The antibodies are diluted into FACS buffer, supplemented with 3 mg/ml juman IgG, and the staining is performed in a total of 25 microliter for 30 min. on ice. The stained cells are washed twice with cold FACS buffer and then analyzed by flow cytometry using a FACScalibur and CellQuest software. The expression of CCR2 on CD-14- and HLA-DR-positive monocytes is determined and expressed as mean fluorescence intensity (MFI). The relative CCR2 expression is expressed as percent of control staining.

T1 sequence (P51681 whole entry): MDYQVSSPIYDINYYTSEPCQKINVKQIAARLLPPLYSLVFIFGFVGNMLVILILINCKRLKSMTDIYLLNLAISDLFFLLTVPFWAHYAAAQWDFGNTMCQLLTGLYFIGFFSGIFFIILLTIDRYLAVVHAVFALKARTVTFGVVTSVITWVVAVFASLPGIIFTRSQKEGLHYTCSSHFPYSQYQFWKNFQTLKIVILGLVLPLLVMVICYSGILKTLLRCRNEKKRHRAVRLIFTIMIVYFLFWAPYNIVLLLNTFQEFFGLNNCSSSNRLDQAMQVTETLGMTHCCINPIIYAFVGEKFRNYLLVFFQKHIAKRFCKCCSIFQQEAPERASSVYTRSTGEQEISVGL

IC50 (Human CCR5) [nM] | IC50 (hCCR2b) [nM] | SMILES | Receptor blockade After 2 hrs in % (CCR2 receptor) [%] | Receptor blockade After 24 hrs in % (CCR2 receptor) [%]
4.8 | 0.4 | C[C@H]1CN(CC[C@]2(O)CC[C@@H](NC(=O)c3cc4c(OCc5coc6cc(OCC7CC7)ccc56)cccc4[nH]3)CC2)CC[C@@H]1O [Example 15, 4-(6-Cyclopropylmethoxy-benzofuran-3-ylmethoxy)-1H-indole-2-carboxylic acid {4-hydroxy-4-[2-((3S,4S)-4-hydroxy-3-methyl-piperidin-1-yl)-ethyl]-cyclohexyl}-amide] | 103.2 | 42.6
2.9 | 0.8 | CCOCCOc1ccc2c(COc3cccc4[nH]c(C(=O)N[C@H]5CC[C@](O)(CCN6CC[C@H](O)[C@@H](C)C6)CC5)cc34)coc2c1 [Example 16, 4-[6-(2-Ethoxy-ethoxy)-benzofuran-3-ylmethoxy]-1H-indole-2-carboxylic acid {4-hydroxy-4-[2-((3S,4S)-4-hydroxy-3-methyl-piperidin-1-yl)-ethyl]-cyclohexyl}-amide] | 78.1 | 21.6
3.3 | 0.2 | CC(C)OCCOc1ccc2c(COc3cccc4[nH]c(C(=O)N[C@H]5CC[C@](O)(CCN6CC[C@H](O)[C@@H](C)C6)CC5)cc34)coc2c1 [Example 18, 4-[6-(2-Isopropoxy-ethoxy)-benzofuran-3-ylmethoxy]-1H-indole-2-carboxylic acid {4-hydroxy-4-[2-((3S,4S)-4-hydroxy-3-methyl-piperidin-1-yl)-ethyl]-cyclohexyl}-amide] | 88.2 | 43.5
